Results from US11299492B2, “JAK kinase inhibitor compounds for treatment of respiratory disease” (THERAVANCE BIOPHARMA R&D IP, LLC, priority 2015, dated 2022).
One block for each compound: values may come before it.

How the values were obtained:
[1] = Pharmacokinetics in plasma and lung in mouse; assay type: in vivo; settings: oral aspiration, lung AUC (μg hr/g) / plasma AUC (μg hr/mL)
Procedure: Plasma and lung levels of test compounds and ratios thereof were determined in the following manner. BALB/c mice from Charles River Laboratories were used in the assay. Test compounds were individually formulated in 20% propylene glycol in pH 4 citrate buffer at a concentration of 0.2 mg/mL and 50 uL of the dosing solution was introduced into the trachea of a mouse by oral aspiration. At various time points (typically 0.167, 2, 6, 24 hr) post dosing, blood samples were removed via cardiac puncture and intact lungs were excised from the mice. Blood samples were centrifuged (Eppendorf centrifuge, 5804R) for 4 minutes at approximately 12,000 rpm at 4° C. to collect plasma. Lungs were padded dry, weighed, and homogenized at a dilution of 1:3 in sterile water. Plasma and lung levels of test compound were determined by LC-MS analysis against analytical standards constructed into a standard curve in the test matrix. A lung to plasma ratio was determined as the ratio of the lung AUC in μg hr/g to the plasma AUC in μg hr/mL, where AUC is conventionally defined as the area under the curve of test compound concentration vs. time.

[2] = system: IL-13 induced STAT6 phosphorylation in BEAS-2B human lung epithelial cells; assay: AlphaScreen JAK1 cellular potency assay (BEAS-2B); assay type: cell-based; settings: for BEAS-2B pIC50: IL-13 induced STAT6 phosphorylation, BEAS-2B cells; for fold less potent than the corresponding compound of the invention in the BEAS-2B cellular assay: C-1 vs Ex 1, C-2 vs Ex 7, C-3 vs Ex 13, C-4 vs Ex 6
[3] = system: IL-13 induced pSTAT6 induction in lung tissue; assay: Murine model of IL-13 induced pSTAT6 induction in lung tissue; assay type: in vivo; settings: mouse lung; for lung concentration smaller than that of the corresponding compound of the invention by a factor: pharmacodynamic assay, C-1 vs Ex 1, C-2 vs Ex 7, C-3 vs Ex 13, C-4 vs Ex 6; for pSTAT6 inhibition in the pharmacodynamic assay: IL-13 challenge
Procedure: I1-13 is an important cytokine underlying the pathophysiology of asthma (Kudlacz et al. Eur. J Pharmacol, 2008, 582, 154-161). IL-13 binds to cell surface receptors activating members of the Janus family of kinases (JAK) which then phosphorylate STAT6 and subsequently activates further transcription pathways. In the described model, a dose of IL-13 was delivered locally into the lungs of mice to induce the phosphorylation of STAT6 (pSTAT6) which is then measured as the endpoint.
Adult balb/c mice from Harlan were used in the assay. On the day of study, animals were lightly anesthetized with isoflurane and administered either vehicle or test compound (0.5 mg/mL, 50 μL total volume over several breaths) via oral aspiration. Animals were placed in lateral recumbency post dose and monitored for full recovery from anesthesia before being returned to their home cage. Four hours later, animals were once again briefly anesthetized and challenged with either vehicle or IL-13 ([…] total dose delivered, 50 μL total volume) via oral aspiration before being monitored for recovery from anesthesia and returned to their home cage. One hour after vehicle or IL-13 administration, lungs were collected for both pSTAT6 detection using an anti-pSTAT6 ELISA (rabbit mAb capture/coating antibody; mouse mAb detection/report antibody: anti-pSTAT6-pY641; secondary antibody: anti-mouse IgG-HRP) and analyzed for total drug concentration as described above in Assay 4.
Selected compounds of the invention were tested in the assay. Activity in the model is evidenced by a decrease in the level of pSTAT6 present in the lungs of treated animals at 5 hours compared to the vehicle treated, IL-13 challenged control animals. The difference between the control animals which were vehicle-treated, IL-13 challenged and the control animals which were vehicle-treated, vehicle challenged dictated the 0% and 100% inhibitory effect, respectively, in any given experiment.

[4] = Dynamic moisture sorption assessment; assay type: physicochemical
Procedure: Dynamic moisture sorption (DMS) measurement was performed using a VTI atmospheric microbalance, SGA-100 system (VTI Corp., Hialeah, Fla. 33016). A weighed sample was used and the humidity was lowest possible value (close to 0% RH) at the start of the analysis. The DMS analysis consisted of an initial drying step (˜0% RH) for 120 minutes, followed by two cycles of sorption and desorption with a scan rate of 5% RH/step over the humidity range of 5% RH to 90% RH. The DMS run was performed isothermally at 25° C.

- Lung to Plasma ratio Assay 4 [1]: A (A denotes a ratio>100)
Structure (SMILES): CCc1cc(O)c(F)cc1-c1ccc2c(-c3nc4c([nH]3)CCN(CC3CNC3)C4)n[nH]c2c1 [Example 14-7]

Structure (SMILES): CCc1cc(O)c(F)cc1-c1ccc2c(-c3nc4c([nH]3)CCN(C3CN(CCC#N)C3)C4)n[nH]c2c1 [Example 1-8]
- BEAS-2B pIC50 [2]: A (A represents a pIC50 value≥8 (IC50≤10 nM))

Structure (SMILES): CCc1cc(O)c(F)cc1-c1ccc2c(-c3nc4c([nH]3)CCN(C3CC(C)C3)C4)n[nH]c2c1 (stereo not drawn) [Example C-1, 5-Ethyl-2-fluoro-4-(3-(5-(3-methylcyclobutyl)-4,5,6,7-tetrahydro-1H-imidazo[4,5-c]pyridin-2-yl)-1H-indazol-6-yl)phenol]
- lung concentration smaller than that of the corresponding compound of the invention by a factor [3]: 36

Structure (SMILES): CCc1cc(O)c(F)cc1-c1ccc2c(-c3nc4c([nH]3)CCN(CC3CCCOC3)C4)n[nH]c2c1 (stereo not drawn) [Example C-3, reference compound]
- fold less potent than the corresponding compound of the invention in the BEAS-2B cellular assay [2]: 3 fold
- lung concentration smaller than that of the corresponding compound of the invention by a factor [3]: 13

- Lung to Plasma ratio Assay 4 [1]: A (A denotes a ratio>100)
Structure (SMILES): CCc1cc(O)c(F)cc1-c1ccc2c(-c3nc4c([nH]3)CCN(C[C@@H]3CCCN3C)C4)n[nH]c2c1 [Example 11, (S)-5-ethyl-2-fluoro-4-(3-(5-((1-methylpyrrolidin-2-yl)methyl)-4,5,6,7-tetrahydro-1H-imidazo[4,5-c]pyridin-2-yl)-1H-indazol-6-yl)phenol]

- Lung to Plasma ratio Assay 4 [1]: A (A denotes a ratio>100)
Structure (SMILES): CCc1cc(O)c(F)cc1-c1ccc2c(-c3nc4c([nH]3)CCN(CCN3CCC[C@@H]3C)C4)n[nH]c2c1 [Example 15, (S)-5-ethyl-2-fluoro-4-(3-(5-(2-(2-methylpyrrolidin-1-yl)ethyl)-4,5,6,7-tetrahydro-1H-imidazo[4,5-c]pyridin-2-yl)-1H-indazol-6-yl)phenol]

- Lung to Plasma ratio Assay 4 [1]: A (A denotes a ratio>100)
Structure (SMILES): CCc1cc(O)c(F)cc1-c1ccc2c(-c3nc4c([nH]3)CCN(CCN(C)CC(C)C)C4)n[nH]c2c1 [Example 3-33]

- Lung to Plasma ratio Assay 4 [1]: A (A denotes a ratio>100)
Structure (SMILES): CCc1cc(O)c(F)cc1-c1ccc2c(-c3nc4c([nH]3)CCN(C[C@@H]3COCCN3)C4)n[nH]c2c1 [Example 14, (R)-5-Ethyl-2-fluoro-4-(3-(5-(morpholin-3-ylmethyl)-4,5,6,7-tetrahydro-1H-imidazo[4,5-c]pyridin-2-yl)-1H-indazol-6-yl)phenol]

Structure (SMILES): CCc1cc(O)c(F)cc1-c1ccc2c(-c3nc4c([nH]3)CCN(C3CN(C5CCS(=O)(=O)C5)C3)C4)n[nH]c2c1 (stereo not drawn) [Example 1-15]
- pSTAT6 inhibition in the pharmacodynamic assay [3]: exceptions

- Lung to Plasma ratio Assay 4 [1]: A (A denotes a ratio>100)
Structure (SMILES): CCc1cc(O)c(F)cc1-c1ccc2c(-c3nc4c([nH]3)CCN(CCNC3CC(OC)C3)C4)n[nH]c2c1 (stereo not drawn) [Example 8, 5-Ethyl-2-fluoro-4-(3-(5-(2-((3-methoxycyclobutyl)amino)ethyl)-4,5,6,7-tetrahydro-1H-imidazo[4,5-c]pyridin-2-yl)-1H-indazol-6-yl)phenol]

Structure (SMILES): CCc1cc(O)c(F)cc1-c1ccc2c(-c3nc4c([nH]3)CCN(CCNC3(C#N)CC3)C4)n[nH]c2c1 [Example 3-1]
- pSTAT6 inhibition in the pharmacodynamic assay [3]: exceptions

Structure (SMILES): CCc1cc(O)c(F)cc1-c1ccc2c(-c3nc4c([nH]3)CCN(CCNC3CC(OC)C3)C4)n[nH]c2c1 (stereo not drawn) [Example 3-30]
- BEAS-2B pIC50 [2]: A (A represents a pIC50 value≥8 (IC50≤10 nM))

- weight gain ([4]; humidity range of 5% to 90% relative humidity, 25° C): less than 0.12%
- hygroscopicity ([4]; two cycles of sorption and desorption, 5% to 90% RH): non-hygroscopic
Structure (SMILES): CCc1cc(O)c(F)cc1-c1ccc2c(-c3nc4c([nH]3)CCN(C3CCN(C)CC3)C4)n[nH]c2c1 [crystalline hydrate, Crystalline hydrate of 5-ethyl-2-fluoro-4-(3-(5-(1-methylpiperidin-4-yl)-4,5,6,7-tetrahydro-1H-imidazo[4,5-c]pyridin-2-yl)-1H-indazol-6-yl)phenol]

- Lung to Plasma ratio Assay 4 [1]: A (A denotes a ratio>100)
Structure (SMILES): CCc1cc(O)c(F)cc1-c1ccc2c(-c3nc4c([nH]3)CCN(C[C@H]3COCCN3)C4)n[nH]c2c1 [Example 13, (S)-5-Ethyl-2-fluoro-4-(3-(5-(morpholin-3-ylmethyl)-4,5,6,7-tetrahydro-1H-imidazo[4,5-c]pyridin-2-yl)-1H-indazol-6-yl)phenol]

Structure (SMILES): CCc1cc(O)c(F)cc1-c1ccc2c(-c3nc4c([nH]3)CCN(C3CCC(C)CC3)C4)n[nH]c2c1 (stereo not drawn) [Example C-4, reference compound]
- fold less potent than the corresponding compound of the invention in the BEAS-2B cellular assay [2]: 6 fold
- lung concentration smaller than that of the corresponding compound of the invention by a factor [3]: 23

Structure (SMILES): CCc1cc(O)c(F)cc1-c1ccc2c(-c3nc4c([nH]3)CCN(C3CN(CCOC)C3)C4)n[nH]c2c1 [Example 1-6]
- BEAS-2B pIC50 [2]: A (A represents a pIC50 value≥8 (IC50≤10 nM))

Structure (SMILES): CCc1cc(O)c(F)cc1-c1ccc2c(-c3nc4c([nH]3)CCN(CCC(C)C)C4)n[nH]c2c1 [Example C-2, reference compound]
- fold less potent than the corresponding compound of the invention in the BEAS-2B cellular assay [2]: 6 fold
- lung concentration smaller than that of the corresponding compound of the invention by a factor [3]: 52
